Laboratory results: patent publication US20240376084A1, “INHIBITORS OF ALPHA-HEMOLYSIN OF STAPHYLOCOCCUS AUREUS” (Helmholtz-Zentrum Fur Infektionsforschung GmbH, priority 2021, published 2024)

How the values were obtained:
[1] = biological target: hemolysin alpha from Staphylococcus aureus (Staphylococcus aureus, UniProt P09616); test: cell-based
[2] = biological target: S. aureus Alpha hemolysin (Staphylococcus aureus, UniProt P09616); test: cell-based; settings: A549-LDH Assay activity
Sequence of S. aureus Alpha hemolysin (P09616 27-319 limits assumed): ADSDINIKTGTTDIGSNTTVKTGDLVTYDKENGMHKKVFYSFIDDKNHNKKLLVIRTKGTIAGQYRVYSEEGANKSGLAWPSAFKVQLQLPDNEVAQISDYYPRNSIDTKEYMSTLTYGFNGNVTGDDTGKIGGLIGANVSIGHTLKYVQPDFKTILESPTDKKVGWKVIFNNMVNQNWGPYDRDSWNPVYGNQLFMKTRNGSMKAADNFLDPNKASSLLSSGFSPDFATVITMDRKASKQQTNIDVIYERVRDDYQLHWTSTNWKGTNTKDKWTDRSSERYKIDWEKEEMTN

Sequence of hemolysin alpha from Staphylococcus aureus (P09616 27-319 limits assumed): as above

Compound | EC50 [1] [nM] | EC50 [2] [nM]
CC(=O)c1cccc(-c2ccc(NS(=O)(=O)c3cc4[nH]c(=O)c(=O)[nH]c4cc3C)cc2Cl)c1 [Compound 249, N-[4-(3-acetylphenyl)-3-chloro-phenyl]-7-methyl-2,3-dioxo-1,4-dihydroquinoxaline-6-sulfonamide] | < 30 | 100 to 1000
Cc1cc2[nH]c(=O)c(=O)[nH]c2cc1S(=O)(=O)Nc1ccc(-c2ccc(F)cc2)c(N2CCOCC2)c1 [Compound 250, N-[4-(4-fluorophenyl)-3-morpholino-phenyl]-7-methyl-2,3-dioxo-1,4-dihydroquinoxaline-6-sulfonamide] | 100 to 1000 | 1000 to 6000
C#Cc1ccc(-c2ccc(NS(=O)(=O)c3cc4[nH]c(=O)c(=O)[nH]c4cc3C)cc2C#C)cc1 [Compound 251, N-(2,4′-diethynyl-[1,1′-biphenyl]-4-yl)-7-methyl-2,3-dioxo-1,2,3,4-tetrahydroquinoxaline-6-sulfonamide] | < 30 | < 30
C#Cc1cc(NS(=O)(=O)c2cc3[nH]c(=O)c(=O)[nH]c3cc2C)ccc1-c1ccccc1 [Compound 252, N-(3-ethynyl-4-phenyl-phenyl)-7-methyl-2,3-dioxo-1,4-dihydroquinoxaline-6-sulfonamide] | < 30 | 30 to 100
C#Cc1cc(NS(=O)(=O)c2cc3[nH]c(=O)c(=O)[nH]c3cc2C)ccc1-c1ccc(C#N)cc1 [Compound 253, N-[4-(4-cyanophenyl)-3-ethynyl-phenyl]-7-methyl-2,3-dioxo-1,4-dihydroquinoxaline-6-sulfonamide] | < 30 | 30 to 100
Cc1cc2[nH]c(=O)c(=O)[nH]c2cc1S(=O)(=O)Nc1ccc(-c2ccc(C#N)nc2)c(Cl)c1 [Compound 254, N-[3-chloro-4-(6-cyano-3-pyridyl)phenyl]-7-methyl-2,3-dioxo-1,4-dihydroquinoxaline-6-sulfonamide] | 100 to 1000 | 100 to 1000
Cc1cc2[nH]c(=O)c(=O)[nH]c2cc1S(=O)(=O)Nc1ccc(-c2ccc(F)cc2)c(N(C)C)c1 [Compound 255, N-[3-(dimethylamino)-4-(4-fluorophenyl)phenyl]-7-methyl-2,3-dioxo-1,4-dihydroquinoxaline-6-sulfonamide] | 100 to 1000 | 100 to 1000
Cc1cc2[nH]c(=O)c(=O)[nH]c2cc1S(=O)(=O)Nc1ccc(-c2ccc3nn[nH]c3c2)c(Cl)c1 [Compound 256, N-[4-(1H-benzotriazol-5-yl)-3-chloro-phenyl]-7-methyl-2,3-dioxo-1,4-dihydroquinoxaline-6-sulfonamide] | < 30 | 30 to 100
Cc1cc2[nH]c(=O)c(=O)[nH]c2cc1S(=O)(=O)Nc1ccc(-c2ccc(Cl)c(Cl)c2)c(Cl)c1 [Compound 257, N-[3-chloro-4-(3,4-dichlorophenyl)phenyl]-7-methyl-2,3-dioxo-1,4-dihydroquinoxaline-6-sulfonamide] | < 30 | 30 to 100
COc1cc(OC)cc(-c2ccc(NS(=O)(=O)c3cc4[nH]c(=O)c(=O)[nH]c4cc3C)cc2Cl)c1 [Compound 258, N-[3-chloro-4-(3,5-dimethoxyphenyl)phenyl]-7-methyl-2,3-dioxo-1,4-dihydroquinoxaline-6-sulfonamide] | 100 to 1000 | 100 to 1000
Cc1cc2[nH]c(=O)c(=O)[nH]c2cc1S(=O)(=O)Nc1ccc(-c2ccc3c(c2)OCCO3)c(Cl)c1 [Compound 259, N-[3-chloro-4-(2,3-dihydro-1,4-benzodioxin-6-yl)phenyl]-7-methyl-2,3-dioxo-1,4-dihydroquinoxaline-6-sulfonamide] | < 30 | 100 to 1000
COc1ncc(-c2ccc(NS(=O)(=O)c3cc4[nH]c(=O)c(=O)[nH]c4cc3C)cc2Cl)cn1 [Compound 260, N-[3-chloro-4-(2-methoxypyrimidin-5-yl)phenyl]-7-methyl-2,3-dioxo-1,4-dihydroquinoxaline-6-sulfonamide] | 100 to 1000 | 100 to 1000
COc1ccc(-c2ccc(NS(=O)(=O)c3cc4[nH]c(=O)c(=O)[nH]c4cc3C)cc2Cl)c(F)c1 [Compound 261, N-[3-chloro-4-(2-fluoro-4-methoxy-phenyl)phenyl]-7-methyl-2,3-dioxo-1,4-dihydroquinoxaline-6-sulfonamide] | < 30 | 30 to 100
Cc1cc2[nH]c(=O)c(=O)[nH]c2cc1S(=O)(=O)Nc1ccc(-c2ccc(S(C)(=O)=O)cc2F)c(Cl)c1 [Compound 262, N-[3-chloro-4-(2-fluoro-4-methylsulfonyl-phenyl)phenyl]-7-methyl-2,3-dioxo-1,4-dihydroquinoxaline-6-sulfonamide] | 1000 to 3500 | 1000 to 6000
Cc1cc2[nH]c(=O)c(=O)[nH]c2cc1S(=O)(=O)Nc1ccc(-n2cncn2)c(Cl)c1 [Compound 263, N-[3-chloro-4-(1,2,4-triazol-1-yl)phenyl]-7-methyl-2,3-dioxo-1,4-dihydroquinoxaline-6-sulfonamide] | 1000 to 3500 | 100 to 1000
Cc1cc2[nH]c(=O)c(=O)[nH]c2cc1S(=O)(=O)Nc1ccc(-n2ccnn2)c(Cl)c1 [Compound 264, N-[3-chloro-4-(triazol-1-yl)phenyl]-7-methyl-2,3-dioxo-1,4-dihydroquinoxaline-6-sulfonamide] | 100 to 1000 | 100 to 1000
Cc1cc2[nH]c(=O)c(=O)[nH]c2cc1S(=O)(=O)Nc1ccc(-n2cncn2)cc1 [Compound 265, 7-methyl-2,3-dioxo-N-[4-(1,2,4-triazol-1-yl)phenyl]-1,4-dihydroquinoxaline-6-sulfonamide] | 1000 to 3500 | 1000 to 6000
Cc1ccc(-c2ccc(NS(=O)(=O)c3cc4[nH]c(=O)c(=O)[nH]c4cc3C)cc2Cl)cc1C [Compound 266, N-[3-chloro-4-(3,4-dimethylphenyl)phenyl]-7-methyl-2,3-dioxo-1,4-dihydroquinoxaline-6-sulfonamide] | 100 to 1000 | 100 to 1000
[2H]C([2H])([2H])Oc1ccc(-c2ccc(NS(=O)(=O)c3cc4[nH]c(=O)c(=O)[nH]c4cc3C)cc2Cl)cc1 [Compound 267, N-[3-chloro-4-[4-(trideuteriomethoxy)phenyl]phenyl]-7-methyl-2,3-dioxo-1,4-dihydroquinoxaline-6-sulfonamide] | < 30 | 30 to 100
Cc1cc2[nH]c(=O)c(=O)[nH]c2cc1S(=O)(=O)Nc1ccc(-c2ccc(OC3CC3)cc2)c(Cl)c1 [Compound 268, N-[3-chloro-4-[4-(cyclopropoxy)phenyl]phenyl]-7-methyl-2,3-dioxo-1,4-dihydroquinoxaline-6-sulfonamide] | 30 to 100 | 100 to 1000
Cc1nc2ccc(-c3ccc(NS(=O)(=O)c4cc5[nH]c(=O)c(=O)[nH]c5cc4C)cc3Cl)cc2o1 [Compound 269, N-[3-chloro-4-(2-methyl-1,3-benzoxazol-6-yl)phenyl]-7-methyl-2,3-dioxo-1,4-dihydroquinoxaline-6-sulfonamide] | < 30 | < 30
Cc1cc2[nH]c(=O)c(=O)[nH]c2cc1S(=O)(=O)Nc1ccc(-c2ccc3[nH]ccc3c2)c(Cl)c1 [Compound 270, N-[3-chloro-4-(1H-indol-5-yl)phenyl]-7-methyl-2,3-dioxo-1,4-dihydroquinoxaline-6-sulfonamide] | 100 to 1000 | 30 to 100
